We go through one compound from article PMC4919791, “Effect of curcumin analogs onα-synuclein aggregation and cytotoxicity” (Scientific Reports, 2016).

The experiment has as its target T1, preformed α-Syn fibrils (Homo sapiens, UniProt P37840).
T1 construct: made in house; host or cells: Escherichia coli BL21
Description: CD spectroscopy of preformed α-Syn fibrils with analogs. The settings on record: 0 h and 48 h of incubation. Type of experiment: biochemical. The method, then:
Further, the effect of curcumin analogs on the secondary structure of protein in preformed amyloid fibrils was studied by circular dichroism (CD) spectroscopy at 0 h and after 48 h of incubation. […] To further validate this, Fourier transform infrared spectroscopy (FTIR) was also performed with these samples, where spectra were recorded from 1500 to 1800 cm^−1.The region characteristic of protein secondary structures (1600–1700 cm^−1) was deconvoluted and the peaks were assigned according to published reports. FTIR spectra in the 1600–1700 cm^−1 region of preformed α-Syn fibrils in absence and presence of curcumin and its analogs are presented in Figs 4B and S4 and their percentage of secondary structures are shown in Table-S1.
20 μl of protein solution from 80 μM stock was diluted to 200 μl in 20 mM MES buffer, pH 6.0 with 0.01% NaN3 such that final protein concentration becomes 8 μM. The protein solution was then placed into a quartz cell (Hellma, Forest Hills, NY) of 0.1 cm path-length. Spectra were recorded using JASCO-810 instrument at 25 °C. Spectra acquisition was over the wavelength range of 198–260 nm with the scan speed of 100 nm/min, bandwidth 1 nm, data pitch 1 nm and response time of 1 sec. Processing of raw data was done by subtraction of buffer spectra and subsequently smoothing according to the manufacturer’s instructions.

Regarding `COc1cc(/C=C/C(=O)CC(=O)/C=C/c2ccc(OCc3ccccc3)c(OC)c2)ccc1OCc1ccccc1` [C6], the “secondary structure of preformed α-Syn fibrils by CD” value is “remains unaltered”.
